What follows are compounds tested on recombinant NL-Rluc virus (assay: Inhibition of HIV replication (NL-Rluc virus in MT-2 cells, luciferase readout)). Conditions: Human immunodeficiency virus 1, MT2, 120 h.
Assay type: cell-based

Q: `Cc1nc2cc3nn2c(c1[C@H](OC(C)(C)C)C(=O)O)N1CCC(C)(CCCCCOc2ccccc2Cn2cc-3cn2)CC1` [Example 40, (2S)-2-(tert-Butoxy)-2-{4,27-dimethyl-21-oxa-1,5,7,8,12,13-hexaazahexacyclo[25.2.2.1^6,9.1^10,13.0^2,7.0^15,20]tritriaconta-2,4,6(33),8,10(32),11,15(20),16,18-nonaen-3-yl}acetic acid] was tested. Which EC50 did it give?
A: 4 nM

Q: How did the EC50 turn out when `Cc1nc2cc3nn2c(c1[C@H](OC(C)(C)C)C(=O)O)N1CCC(C)(CC1)OCCCCOc1c(F)cccc1Cc1cnn-3c1` [Example 28, (2S)-2-(tert-Butoxy)-2-{19-fluoro-4,27-dimethyl-21,26-dioxa-1,5,7,8,10,11-hexaazahexacyclo[25.2.2.1^6,9.1^10,13.0^2,7.0^15,20]tritriaconta-2,4,6(33),8,11,13(32),15(20),16,18-nonaen-3-yl}acetic acid] was run?
A: 11 nM

Q: `Cc1nc2cc3nn2c(c1[C@H](OC(C)(C)C)C(=O)O)N1CCC(C)(CC/C=C/CCOc2ccccc2Cc2cnn-3c2)CC1` [Example 34, (2S)-2-(tert-Butoxy)-2-[(24E)-4,28-dimethyl-21-oxa-1,5,7,8,10,11-hexaazahexacyclo[26.2.2.1^6,9.1^10,13.0^2,7.0^15,20]tetratriaconta-2,4,6(34),8,11,13(33),15(20),16,18,24-decaen-3-yl]acetic acid] was tested. Which EC50 did it give?
A: 8 nM

Q: `Cc1nc2cc3nn2c(c1[C@H](OC(C)(C)C)C(=O)O)N1CCC(C)(CC/C=C\CCc2ccc(F)cc2Cc2cnc-3s2)CC1` (single isomer, unassigned) [Example 22] was tested. Which EC50 did it give?
A: 35 nM

Q: `Cc1nc2cc3nn2c(c1[C@H](OC(C)(C)C)C(=O)O)N1CCC(C)(CC1)OC/C=C/COc1ccccc1Cc1cnn-3c1` [Example 26, (2S)-2-(tert-Butoxy)-2-[(23E)-4,27-dimethyl-21,26-dioxa-1,5,7,8,10,11-hexaazahexacyclo[25.2.2.1^6,9.1^10,13.0^2,7.0^15,20]tritriaconta-2,4,6(33),8,11,13(32),15(20),16,18,23-decaen-3-yl]acetic acid] was tested. Which EC50 did it give?
A: 2 nM

Q: `Cc1nc2cc3nn2c(c1[C@H](OC(C)(C)C)C(=O)O)N1CCC(C)(C/C=C/CCc2ccc(F)cc2Cc2cnc-3s2)CC1` (single isomer, unassigned) [Example 23] was tested. Which EC50 did it give?
A: 7 nM

Q: With `Cc1nc2cc3nn2c(c1[C@H](OC(C)(C)C)C(=O)O)N1CCC(C)(CC1)OCCCCOc1ccccc1Cc1cnc-3s1` [Example 5, (2S)-2-(tert-Butoxy)-2-{4,27-dimethyl-21,26-dioxa-32-thia-1,5,7,8,11-pentaazahexacyclo[25.2.2.1^6,9.1^10,13.0^2,7.0^15,20]tritriaconta-2,4,6(33),8,10,12,15(20),16,18-nonaen-3-yl}Acetic Acid] as the compound, how does the EC50 read?
A: 6 nM

Q: For `Cc1nc2cc3nn2c(c1[C@H](OC(C)(C)C)C(=O)O)N1CCC(C)(CC1)OCCCCOc1ccccc1Cc1cnc-3o1` [Example 6, (2S)-2-(tert-Butoxy)-2-{4,27-dimethyl-21,26,32-trioxa-1,5,7,8,11-pentaazahexacyclo[25.2.2.1^6,9.1^10,13.0^2,7.0^15,20]tritriaconta-2,4,6(33),8,10,12,15(20),16,18-nonaen-3-yl}acetic acid], which EC50 is on record?
A: 4 nM

Q: `Cc1nc2cc3nn2c(c1[C@H](OC(C)(C)C)C(=O)O)N1CCC(C)(/C=C/CCCCc2ccccc2Cc2cnc-3s2)CC1` [Example 13, (2S)-2-(tert-Butoxy)-2-[(25E)-4,27-dimethyl-32-thia-1,5,7,8,11-pentaazahexacyclo[25.2.2.1^6,9.1^10,13.0^2,7.0^15,20]tritriaconta-2,4,6(33),8,10,12,15(20),16,18,25-decaen-3-yl]acetic acid] was tested. Which EC50 did it give?
A: 12 nM

Q: `Cc1nc2cc3nn2c(c1[C@H](OC(C)(C)C)C(=O)O)N1CCC(C)(/C=C/C=C/CCc2ccccc2Cc2cnc-3s2)CC1` [Example 12, (2S)-2-(tert-Butoxy)-2-[(23E,25E)-4,27-dimethyl-32-thia-1,5,7,8,11-pentaazahexacyclo[25.2.2.1^6,9.1^10,13.0^2,7.0^15,20]tritriaconta-2,4,6(33),8,10,12,15(20),16,18,23,25-undecaen-3-yl]acetic acid] was tested. Which EC50 did it give?
A: 8 nM

Q: How did the EC50 turn out when `Cc1nc2cc3nn2c(c1[C@H](OC(C)(C)C)C(=O)O)N1CCC(C)(CC/C=C\C[C@@H](C)Oc2cc(F)ccc2Cc2cnc-3s2)CC1` [Example 20, (2S)-2-(tert-Butoxy)-2-[(22R,24Z)-18-fluoro-4,22,28-trimethyl-21-oxa-33-thia-1,5,7,8,11-pentaazahexacyclo[26.2.2.1^6,9.1^10,13.0^2,7.0^15,20]tetratriaconta-2,4,6(34),8,10,12,15(20),16,18,24-decaen-3-yl]acetic acid] was run?
A: 32 nM

Q: How did the EC50 turn out when `Cc1nc2cc3nn2c(c1[C@H](OC(C)(C)C)C(=O)O)N1CCC(C)(CC1)OCCCCCOc1ccccc1Cc1cnc-3s1` [Example 9, (2S)-2-(tert-Butoxy)-2-{4,28-dimethyl-21,27-dioxa-33-thia-1,5,7,8,11-pentaazahexacyclo[26.2.2.1^6,9.1^10,13.0^2,7.0^15,20]tetratriaconta-2,4,6(34),8,10,12,15(20),16,18-nonaen-3-yl}acetic acid] was run?
A: 2 nM

Q: How did the EC50 turn out when `Cc1nc2cc3nn2c(c1[C@H](OC(C)(C)C)C(=O)O)N1CCC(C)(CC1)OCCCCCc1cccc(c1)Cc1cnc-3s1` [Example 4, (2S)-2-(tert-Butoxy)-2-{4,26-dimethyl-25-oxa-32-thia-1,5,7,8,11-pentaazahexacyclo[24.2.2.1^6,9.1^10,13.1^15,19.0^2,7]tritriaconta-2,4,6(33),8,10,12,15(31),16,18-nonaen-3-yl}acetic acid] was run?
A: 22 nM

Q: With `Cc1nc2cc3nn2c(c1[C@H](OC(C)(C)C)C(=O)O)N1CCC(C)(CC1)OCCCCOc1ccccc1Cc1cnn-3c1` [Example 25, (2S)-2-(tert-Butoxy)-2-{4,27-dimethyl-21,26-dioxa-1,5,7,8,10,11-hexaazahexacyclo[25.2.2.1^6,9.1^10,13.0^2,7.0^15,20]tritriaconta-2,4,6(33),8,11,13(32),15(20),16,18-nonaen-3-yl}acetic acid] as the compound, how does the EC50 read?
A: 5 nM

Q: How did the EC50 turn out when `Cc1nc2cc3nn2c(c1[C@H](OC(C)(C)C)C(=O)O)N1CCC(C)(/C=C/CCCCc2cc(F)ccc2Cc2cnc-3s2)CC1` (single isomer, unassigned) [Example 15] was run?
A: 13 nM

Q: `Cc1nc2cc3nn2c(c1[C@H](OC(C)(C)C)C(=O)O)N1CCC(C)(CC/C=C/CCc2cc(F)ccc2Cc2cnc-3s2)CC1` (single isomer, unassigned) [Example 17] was tested. Which EC50 did it give?
A: 18 nM

Q: Which EC50 does the source give for `Cc1nc2cc3nn2c(c1[C@H](OC(C)(C)C)C(=O)O)N1CCC(C)(C/C=C/CCc2cc(F)ccc2Cc2cnc-3s2)CC1` (single isomer, unassigned) [Example 18] here?
A: 11 nM

Q: How did the EC50 turn out when `Cc1nc2cc3nn2c(c1[C@H](OC(C)(C)C)C(=O)O)N1CCC(C)(CC1)OC/C=C/Cc1ccccc1Cc1cnc-3s1` (single isomer, unassigned) [Example 1] was run?
A: 2 nM

Q: How did the EC50 turn out when `Cc1nc2cc3nn2c(c1[C@H](OC(C)(C)C)C(=O)O)N1CCC(C)(CC/C=C/COc2cccc(c2)Cc2cnn-3c2)CC1` [Example 37] was run?
A: 3 nM

Q: `Cc1nc2cc3nn2c(c1[C@H](OC(C)(C)C)C(=O)O)N1CCC(C)(CC1)OC/C=C/CCOc1ccccc1Cc1cnn-3c1` [Example 31, (2S)-2-(tert-Butoxy)-2-[(24E)-4,28-dimethyl-21,27-dioxa-1,5,7,8,10,11-hexaazahexacyclo[26.2.2.1^6,9.1^10,13.0^2,7.0^15,20]tetratriaconta-2,4,6(34),8,11,13(33),15(20),16,18,24-decaen-3-yl]acetic acid] was tested. Which EC50 did it give?
A: 2 nM

From patent US9663536B2, “Inhibitors of human immunodeficiency virus replication” (priority 2013, dated 2017)
